Experimental data from patent US5489580A, “Phospholipid compounds and use therefor” (University of Connecticut, priority 1992, dated 1996).
Converted amounts (≈) assume the structure as drawn.

How the values were obtained:
Type in all cases: cell-based
[1] = tested on: NAMALWA leukemic cell line; assay: LDH release cytotoxicity assay, NAMALWA; conditions: 5×10^5 cells/mL, 10% fetal calf serum, incubation 2, 4, 8 and 24 hours, time of ID50 not given
Procedure: (§1) The compounds of the present invention were tested for their cytotoxic effects upon various leukemic cell lines. The effectiveness of each of the compounds tested was measured through assessing the leakage of the cytosolic enzyme, lactic dehydrogenase (LDH), from the leukemia cells into the media following incubation with the compound.
(§2) The LDH release assay used was a modified microtiter plate enzyme linked immunosorbent assay LDH release assay. Seven mg of each phospholipid compound to be tested was completely dissolved in separate 700 μL volumes of 100% ethanol. The ethanolic solutions were then diluted to form stock solutions by the addition of 70 mL RPMI complete medium until the concentration of phospholipid in each solution was lowered to about 100 μg/mL. An RPMI complete medium contains a RPMI 1640 medium, without red phenol, 20 mM Hepes buffer, 2 mM L-glutamine, 50 μM 2-mercaptoethanol and 20% of fetal calf serum. To form an ethanol control, a 350 μL aliquot of ethanol was added to a small glass bottle containing 35 mL of RPMI complete medium.
(§3) Each stock solution was mixed by magnetic stirring bar at room temperature for one hour and then filtered through a 0.22 μm Millipore filter, where the filter was pre-rinsed with 0.6 mL of RPMI complete medium. The stock solutions were subsequently placed in a shaker in a cold room overnight and subsequently stored in small glass bottles wrapped with aluminum foil at 4° C.
(§4) Each stock solution was shaken for 30 minutes at room temperature. Then each phospholipid stock solution was separately diluted, in small glass vials, with RPMI complete medium to form solutions with phospholipid concentrations of 80 μg, 40 μg, 20 μg and 10 μg.
(§5) For each cell line, the leukemia cells were removed from the culture flask, put into a 50 mL conical tube, centrifuged at 500 rpm for 10 minutes and then washed once with fresh RPMI 1640 medium.
(§6) Aliquots (0.4 mL) of each 100 μg, 80 μg, 40 μg, 20 μg and 10 μg phospholipid solution were added to small vials containing 0.4 mL of cell suspension to form test solutions with phospholipid concentrations of 50, 40, 20, 10 and 5 μg/mL; cell densities of 5×10^5 cells/mL; and 10% fetal calf serum in RPMI complete medium. For an ethanol control group, an aliquot of 0.4 mL of the ethanol control was mixed with 0.4 mL of cell suspension to form a control group with an ethanol concentration of 0.495% and a cell density of 5×10^5 cells/mL. For a negative control group, a 0.4 mL aliquot of RPMI complete medium was added to 0.4 mL of cell suspension to give a cell density of 5×10^5 cells/mL. For a positive control group, cell suspension was diluted with RPMI 1640 medium, which contained 10% fetal calf serum, 20 mM Hepes buffer, 2 mM L-glutamine and 2-mercaptoethanol and stored overnight at -70° C.
(§7) Aliquots (0.2 mL) of each test solution and control group were added to flat bottomed Linbro microtiter plates, in triplicate, and incubated for 2, 4, 8 and 24 hours. Following incubation, the plates were centrifuged at 500 rpm for 5 minutes. Supernatant aliquots of 0.1 mL were then transferred to separate wells on an optic-clear, flat-bottomed microtiter plate. A volume of 0.1 mL of an LDH substrate mixture, containing 5.4×10^-2 M L(+)-lactate, 6.6×10^-4 MINT, provided by Sigma Chemical Company, 2.8×10^-4 M PMS, and 1.3×10^-3M NAD in a 0.2 M Tris buffer of pH 8.2, was added to each well. A Linbro-Titertek Company Lambda microtiter plate reader was used to monitor the absorbance at 490 nm.
(§8) The cytotoxic effectiveness of each compound tested, as provided in Table I, is described in terms of the ID50 of the drug. The ID50 is the concentration of the compound tested that is required to produce a cytotoxicity that is 50% of the control's cytotoxicity.

[2] = tested on: HUT 78 leukemic cell line; assay: LDH release cytotoxicity assay, HUT 78; conditions: Homo sapiens, HuT78, 5×10^5 cells/mL, 10% fetal calf serum, incubation 2, 4, 8 and 24 hours, time of ID50 not given
Procedure: as §1, §2, §3, §4, §5, §6, §7, §8

CEM leukemic cell line = assay: LDH release cytotoxicity assay, CEM; conditions: 5×10^5 cells/mL, 10% fetal calf serum, incubation 2, 4, 8 and 24 hours, time of ID50 not given
Procedure: as §1, §2, §3, §4, §5, §6, §7, §8

HL60 leukemic cell line = assay: LDH release cytotoxicity assay, HL60; conditions: Homo sapiens, HL-60, 5×10^5 cells/mL, 10% fetal calf serum, incubation 2, 4, 8 and 24 hours, time of ID50 not given
Procedure: as §1, §2, §3, §4, §5
Aliquots (0.4 mL) of each 100 μg, 80 μg, 40 μg, 20 μg and 10 μg phospholipid solution were added to small vials containing 0.4 mL of cell suspension to form test solutions with phospholipid concentrations of 50, 40, 20, 10 and 5 μg/mL; cell densities of 5×10^5 cells/mL; and 10% fetal calf serum in RPMI complete medium. For an ethanol control group, an aliquot of 0.4 mL of the ethanol control was mixed with 0.4 mL of cell suspension to form a control group with an ethanol concentration of 0.495% and a cell density of 5×10^5 cells/mL. […]
Aliquots (0.2 mL) of each test solution and control group were added to flat bottomed Linbro microtiter plates, in triplicate, and incubated for 2, 4, 8 and 24 hours. […] A Linbro-Titertek Company Lambda microtiter plate reader was used to monitor the absorbance at 490 nm. […]

Row | Structure (SMILES) | IC50 [1] | IC50 [2] | IC50 (CEM leukemic cell line) | IC50 (HL60 leukemic cell line)
1 | CCCCCCCCCCCCCCCCCCOCC(COP(=O)([O-])OCC[N+]1(C)CCOCC1)OC (stereo not drawn) [2-O-Methyl-1-O-octadecylglycero-3-phospho-(β-(N-methylmorpholino))ethanol] | 11 µg/mL (≈ 19.4 µM) | 6.6 µg/mL (≈ 11.7 µM) | 3.6 µg/mL (≈ 6.36 µM) | –
2 | CCCCCCCCCCCCCCCCCCOCC(COP(=O)([O-])OCC[N+]1(C)CCCC1)OC (stereo not drawn) [2-O-Methyl-1-O-octadecylglycero-3-phospho-(β-(N-methylpyrrolidino))ethanol] | 17.5 µg/mL (≈ 31.8 µM) | 13 µg/mL (≈ 23.6 µM) | 3.4 µg/mL (≈ 6.18 µM) | –
3 | CCCCCCCCCCCCCCCCC[C@@H]1CO[C@@H](COP(=O)([O-])OCC[N+](C)(C)C)CO1 [(2R,5R)-(5-heptadecyl-1,4-dioxan-2-yl) methyloxyphosphocholine] | 4 µg/mL (≈ 7.67 µM) | – | 4 µg/mL (≈ 7.67 µM) | 4 µg/mL (≈ 7.67 µM)
4 | CCCCCCCCCCCCCCCCC[C@H]1CO[C@@H](COP(=O)([O-])OCC[N+](C)(C)C)CO1 [(2R,5S)-(5-heptadecyl-1,4-dioxan-2-yl)methyloxyphosphocholine] | < 2 µg/mL | – | < 2 µg/mL | < 2 µg/mL
5 | CCCCCCCCCCCCCCCCCCOC[C@H](COP(=O)([O-])O[C@H](C)C[N+](C)(C)C)OC [(2R,αR)-2-O-Methyl-1-O-octadecyl-sn-glycero-3-phospho-(α-methyl)choline] | 22 µg/mL (≈ 40.9 µM) | 21 µg/mL (≈ 39.1 µM) | 5.6 µg/mL (≈ 10.4 µM) | –
6 | CCCCCCCCCCCCCCCCCCOC[C@H](COP(=O)([O-])O[C@@H](C)C[N+](C)(C)C)OC [(2R,αS)-2-O-Methyl-1-O-octadecyl-sn-glycero-3-phospho-(α-methyl)choline] | 21.5 µg/mL (≈ 40 µM) | 15.2 µg/mL (≈ 28.3 µM) | 4.5 µg/mL (≈ 8.37 µM) | –
7 | CCCCCCCCCCCCCCCCCCOC[C@H](COP(=O)([O-])OC[C@@H](C)[N+](C)(C)C)OC [(2R,βR)-2-O-Methyl-1-O-octadecyl-sn-glycero-3-phospho-(β-methyl)choline] | 13.5 µg/mL (≈ 25.1 µM) | 11.2 µg/mL (≈ 20.8 µM) | 3.3 µg/mL (≈ 6.14 µM) | –
8 | CCCCCCCCCCCCCCCCCCOC[C@H](COP(=O)([O-])OC[C@H](C)[N+](C)(C)C)OC [(2R,βS)-2-O-Methyl-1-O-octadecyl-sn-glycero-3-phospho-(β-methyl)choline] | 12.8 µg/mL (≈ 23.8 µM) | 6.6 µg/mL (≈ 12.3 µM) | 2.85 µg/mL (≈ 5.3 µM) | –
9 | CCCCCCCCCCCCCCCCC[C@@H]1CO[C@H](COP(=O)([O-])OCC[N+](C)(C)C)CO1 [(2S,5R)-(5-heptadecyl-1,4-dioxan-2-yl)methyloxyphosphocholine] | 4 µg/mL (≈ 7.67 µM) | – | 4 µg/mL (≈ 7.67 µM) | 4 µg/mL (≈ 7.67 µM)
10 | CCCCCCCCCCCCCCCCC[C@H]1CO[C@H](COP(=O)([O-])OCC[N+](C)(C)C)CO1 [(2S,5S)-(5-heptadecyl-1,4-dioxan-2-yl)methyloxyphosphocholine] | < 2 µg/mL | – | < 2 µg/mL | < 2 µg/mL
11 | CCCCCCCCCCCCCCCCCCOC[C@H](COP(=O)(O)O)OC [(R)-2-O-Methyl-1-O-octadecyl-sn-glycero-3-phosphoric acid] | 24 µg/mL (≈ 54.7 µM) | 3 µg/mL (≈ 6.84 µM) | 2.95 µg/mL (≈ 6.73 µM) | –
